Data from BindingDB's records for doi:10.1016/s0960-894x(98)00716-1 (Novartis Biomedical Research Institute, 1999).

What follows are compounds tested against Stromelysin-1 (MMP-3) (assay: In vitro inhibitory activity against matrix metalloprotease-3).

IC50 [nM]	SMILES
> 10000	CCC[C@H]1CC[C@@](CS)(C(=O)N[C@@H](Cc2ccccc2)C(=O)NC)CC1 [1-Mercaptomethyl-4-propyl-cyclohexanecarboxylic acid ((S)-1-methylcarbamoyl-2-phenyl-ethyl)-amide]
9200	CNC(=O)[C@H](Cc1ccccc1)NC(=O)C1(CS)CCCCC1 [1-Mercaptomethyl-cyclohexanecarboxylic acid ((S)-1-methylcarbamoyl-2-phenyl-ethyl)-amide]
207	CCO[C@H]1CC[C@@](CS)(C(=O)N[C@@H](Cc2ccccc2)C(=O)NCc2ccccc2)CC1 [4-Ethoxy-1-mercaptomethyl-cyclohexanecarboxylic acid ((S)-1-benzylcarbamoyl-2-phenyl-ethyl)-amide]
617	CCO[C@H]1CC[C@@](CS)(C(=O)N[C@@H](Cc2ccccc2)C(=O)NC2CCCCC2)CC1 [4-Ethoxy-1-mercaptomethyl-cyclohexanecarboxylic acid ((S)-1-cyclohexylcarbamoyl-2-phenyl-ethyl)-amide]
666	CCO[C@H]1CC[C@@](CS)(C(=O)N[C@@H](Cc2ccccc2)C(=O)NC2CCCC2)CC1 [4-Ethoxy-1-mercaptomethyl-cyclohexanecarboxylic acid ((S)-1-cyclopentylcarbamoyl-2-phenyl-ethyl)-amide]
640	CCO[C@H]1CC[C@@](CS)(C(=O)N[C@@H](Cc2ccccc2)C(=O)NC)CC1 [4-Ethoxy-1-mercaptomethyl-cyclohexanecarboxylic acid ((S)-1-methylcarbamoyl-2-phenyl-ethyl)-amide]
113	CCO[C@H]1CC[C@@](CS)(C(=O)N[C@@H](Cc2ccccc2)C(=O)Nc2ccc(Cl)cc2)CC1 [4-Ethoxy-1-mercaptomethyl-cyclohexanecarboxylic acid [(S)-1-(4-chloro-phenylcarbamoyl)-2-phenyl-ethyl]-amide]
39	CCO[C@H]1CC[C@@](CS)(C(=O)N[C@@H](Cc2ccccc2)C(=O)Nc2ccc(OC)cc2)CC1 [4-Ethoxy-1-mercaptomethyl-cyclohexanecarboxylic acid [(S)-1-(4-methoxy-phenylcarbamoyl)-2-phenyl-ethyl]-amide]
139	CCOc1ccc(C[C@H](NC(=O)[C@]2(CS)CC[C@H](OCC)CC2)C(=O)Nc2ccccc2)cc1 [4-Ethoxy-1-mercaptomethyl-cyclohexanecarboxylic acid [(S)-2-(4-ethoxy-phenyl)-1-phenylcarbamoyl-ethyl]-amide]
134	CCO[C@H]1CC[C@@](CS)(C(=O)N[C@@H](Cc2ccc(F)cc2)C(=O)Nc2ccccc2)CC1 [4-Ethoxy-1-mercaptomethyl-cyclohexanecarboxylic acid [(S)-2-(4-fluoro-phenyl)-1-phenylcarbamoyl-ethyl]-amide]
62	CCO[C@H]1CC[C@@](CS)(C(=O)N[C@@H](Cc2ccc(OC)cc2)C(=O)Nc2ccccc2)CC1 [4-Ethoxy-1-mercaptomethyl-cyclohexanecarboxylic acid [(S)-2-(4-methoxy-phenyl)-1-phenylcarbamoyl-ethyl]-amide]
175	CCO[C@H]1CC[C@@](CS)(C(=O)N[C@@H](Cc2ccccc2)C(=O)Nc2ccc(OC(F)(F)F)cc2)CC1 [4-Ethoxy-1-mercaptomethyl-cyclohexanecarboxylic acid [(S)-2-phenyl-1-(4-trifluoromethoxy-phenylcarbamoyl)-ethyl]-amide]
449	CCO[C@H]1CC[C@@](CS)(C(=O)N[C@@H](Cc2ccccc2)C(=O)Nc2ccccn2)CC1 [4-Ethoxy-1-mercaptomethyl-cyclohexanecarboxylic acid [(S)-2-phenyl-1-(pyridin-2-ylcarbamoyl)-ethyl]-amide]
> 10000	CNC(=O)[C@H](Cc1ccccc1)NC(=O)[C@]1(CS)CC[C@H](C(C)(C)C)CC1 [4-tert-Butyl-1-mercaptomethyl-cyclohexanecarboxylic acid ((S)-1-methylcarbamoyl-2-phenyl-ethyl)-amide]
> 10000	CNC(=O)[C@H](Cc1ccccc1)NC(=O)[C@@]1(CS)CCCC(OC)C1 (stereo partly drawn) [(R)-1-Mercaptomethyl-3-methoxy-cyclohexanecarboxylic acid ((S)-1-methylcarbamoyl-2-phenyl-ethyl)-amide]
